Assay results from article PMC7300003, “Alternative catalytic residues in the active site of Esco acetyltransferases” (Scientific Reports, 2020).

Assays:
[1] = molecular target: T1, HsESCO1 (Homo sapiens, UniProt Q5FWF5); assay: SMC3 acetylation time course, anti-acetyl-Smc3 immunoblot; format: biochemical; settings: 10 µM AcCoA; acceptor human trimeric or tetrameric cohesin (SMC3 K105/K106); ATP, plasmid DNA, 1 mM MgCl2, pH 7.5, 37 °C
T1 construct: gene ESCO1; full-length, N-terminal His-tag, Sf9 insect cells
T1 sequence (Q5FWF5 1-840): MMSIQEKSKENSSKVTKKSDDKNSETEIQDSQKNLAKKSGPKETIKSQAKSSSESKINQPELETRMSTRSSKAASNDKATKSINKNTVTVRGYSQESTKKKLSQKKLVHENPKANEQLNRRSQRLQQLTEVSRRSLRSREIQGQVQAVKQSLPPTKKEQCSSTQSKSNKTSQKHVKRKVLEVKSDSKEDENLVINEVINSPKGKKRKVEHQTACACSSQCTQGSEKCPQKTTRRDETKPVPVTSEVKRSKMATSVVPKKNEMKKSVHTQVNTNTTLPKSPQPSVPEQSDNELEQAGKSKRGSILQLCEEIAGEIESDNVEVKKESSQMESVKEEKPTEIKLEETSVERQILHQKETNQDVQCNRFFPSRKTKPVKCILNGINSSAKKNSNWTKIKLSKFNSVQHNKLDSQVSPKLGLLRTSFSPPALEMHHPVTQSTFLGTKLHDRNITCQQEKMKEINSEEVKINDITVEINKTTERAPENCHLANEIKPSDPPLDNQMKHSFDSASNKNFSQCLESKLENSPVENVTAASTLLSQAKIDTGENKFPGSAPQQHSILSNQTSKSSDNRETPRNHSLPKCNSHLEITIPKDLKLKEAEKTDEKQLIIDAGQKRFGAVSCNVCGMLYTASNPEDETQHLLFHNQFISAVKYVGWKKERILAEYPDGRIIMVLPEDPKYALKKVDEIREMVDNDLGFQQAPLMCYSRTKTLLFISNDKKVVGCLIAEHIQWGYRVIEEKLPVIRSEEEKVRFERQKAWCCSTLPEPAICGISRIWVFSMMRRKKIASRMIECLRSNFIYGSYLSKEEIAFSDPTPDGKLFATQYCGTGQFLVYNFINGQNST

[2] = molecular target: T2, MmEsco2^368–592 (Mus musculus, UniProt Q8CIB9); assay: X-ray crystallography, […] Å (zinc SAD); format: binding; settings: natively bound (co-purified) CoA; active-site groove; pH 8 crystallisation
T2 construct: gene Esco2; residues 368-592 (C2H2 zinc finger and acetyltransferase domain), C-terminal His-tag, Hi5 insect cells
T2 sequence (Q8CIB9 368-592): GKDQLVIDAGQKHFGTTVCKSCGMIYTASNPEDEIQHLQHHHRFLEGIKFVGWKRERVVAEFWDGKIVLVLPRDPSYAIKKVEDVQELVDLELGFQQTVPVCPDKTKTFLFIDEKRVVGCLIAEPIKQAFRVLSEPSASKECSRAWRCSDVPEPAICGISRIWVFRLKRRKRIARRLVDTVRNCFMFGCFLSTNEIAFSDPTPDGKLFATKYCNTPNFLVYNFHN

Row | Structure (SMILES) | SMC3 acetylation time course, anti-acetyl-Smc3 immunoblot [1] | X-ray crystallography, 1.8 Å (zinc SAD) [2]
1 | CC(=O)SCCNC(=O)CCNC(=O)[C@H](O)C(C)(C)COP(=O)(O)OP(=O)(O)OC[C@H]1O[C@@H](n2cnc3c(N)ncnc32)[C@H](O)[C@@H]1OP(=O)(O)O [AcCoA] | The purified tetrameric cohesin complex was incubated with HsESCO1 and AcCoA | –
2 | CC(C)(COP(=O)(O)OP(=O)(O)OC[C@H]1O[C@@H](n2cnc3c(N)ncnc32)[C@H](O)[C@@H]1OP(=O)(O)O)[C@@H](O)C(=O)NCCC(=O)NCCS [CoA] | – | The CoA cofactor is natively present in a complex with MmEsco2 in a groove
